Data taken from US7118895B2, “Process for producing aglycon by using diglycosidase and flavor-improved food containing the aglycon and converting agent to be used in the process” (Amano Enzyme Inc., priority 2000, dated 2006).

Tested on: Crude diglycosidase
Test: Examination of substrate concentration in the conversion into isoflavone aglycons by diglycosidase using soybean materials;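 also: percent of the isoflavone family total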
Assay type: biochemical, Penicillium multicolor IAM7153
Procedure, shortened: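 Soybean materials (roasted soy flour, soymilk, defatted soybean, concentrated soy protein) at 2–30% (w/v) in 20 mM acetate pH 4.0 were reacted with crude diglycosidase at 55° C with shaking; enzyme solution added was 1.88 AU/mL. Samples taken at 0, 1, 3 and 6 h were ethanol-extracted and analyzed by HPLC.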

Structure (SMILES): COc1cc2c(=O)c(-c3ccc(O)cc3)coc2cc1O[C@@H]1O[C@H](COC(=O)CC(=O)O)[C@@H](O)[C@H](O)[C@H]1O [malonylglycitin, 6″-O-malonylglycitin]
- Decomposition efficiency: ratio of each glycoside/aglycon within its isoflavone family (concentrated soybean protein, substrate concentration 2%, heat treatment of enzyme no, reaction time 0 h): 0.4%
- Decomposition efficiency: ratio of each glycoside/aglycon within its isoflavone family (concentrated soybean protein, substrate concentration 2%, heat treatment of enzyme no, reaction time 1 h): 0.4%
- Decomposition efficiency: ratio of each glycoside/aglycon within its isoflavone family (concentrated soybean protein, substrate concentration 2%, heat treatment of enzyme no, reaction time 3 h): 0.2%
- Decomposition efficiency: ratio of each glycoside/aglycon within its isoflavone family (concentrated soybean protein, substrate concentration 2%, heat treatment of enzyme no, reaction time 6 h): not detected
- Decomposition efficiency: ratio of each glycoside/aglycon within its isoflavone family (concentrated soybean protein, substrate concentration 2%, heat treatment of enzyme yes, reaction time 6 h): 0.4%
- Decomposition efficiency: ratio of each glycoside/aglycon within its isoflavone family (concentrated soybean protein, substrate concentration 5%, heat treatment of enzyme no, reaction time 0 h): 0.4%
- Decomposition efficiency: ratio of each glycoside/aglycon within its isoflavone family (concentrated soybean protein, substrate concentration 5%, heat treatment of enzyme no, reaction time 1 h): 0.5%
- Decomposition efficiency: ratio of each glycoside/aglycon within its isoflavone family (concentrated soybean protein, substrate concentration 5%, heat treatment of enzyme no, reaction time 3 h): 0.4%
- Decomposition efficiency: ratio of each glycoside/aglycon within its isoflavone family (concentrated soybean protein, substrate concentration 5%, heat treatment of enzyme no, reaction time 6 h): 0.2%
- Decomposition efficiency: ratio of each glycoside/aglycon within its isoflavone family (concentrated soybean protein, substrate concentration 5%, heat treatment of enzyme yes, reaction time 6 h): 0.4%
- Decomposition efficiency: ratio of each glycoside/aglycon within its isoflavone family (concentrated soybean protein, substrate concentration 10%, heat treatment of enzyme no, reaction time 0 h): 0.3%
- Decomposition efficiency: ratio of each glycoside/aglycon within its isoflavone family (concentrated soybean protein, substrate concentration 10%, heat treatment of enzyme no, reaction time 1 h): 0.4%
- Decomposition efficiency: ratio of each glycoside/aglycon within its isoflavone family (concentrated soybean protein, substrate concentration 10%, heat treatment of enzyme no, reaction time 3 h): 0.3%
- Decomposition efficiency: ratio of each glycoside/aglycon within its isoflavone family (concentrated soybean protein, substrate concentration 10%, heat treatment of enzyme no, reaction time 6 h): 0.3%
- Decomposition efficiency: ratio of each glycoside/aglycon within its isoflavone family (concentrated soybean protein, substrate concentration 10%, heat treatment of enzyme yes, reaction time 6 h): 0.3%
- Decomposition efficiency: ratio of each glycoside/aglycon within its isoflavone family (concentrated soybean protein, substrate concentration 20%, heat treatment of enzyme no, reaction time 0 h): 0.2%
- Decomposition efficiency: ratio of each glycoside/aglycon within its isoflavone family (concentrated soybean protein, substrate concentration 20%, heat treatment of enzyme no, reaction time 1 h): 0.3%
- Decomposition efficiency: ratio of each glycoside/aglycon within its isoflavone family (concentrated soybean protein, substrate concentration 20%, heat treatment of enzyme no, reaction time 3 h): 0.2%
- Decomposition efficiency: ratio of each glycoside/aglycon within its isoflavone family (concentrated soybean protein, substrate concentration 20%, heat treatment of enzyme no, reaction time 6 h): 0.3%
- Decomposition efficiency: ratio of each glycoside/aglycon within its isoflavone family (concentrated soybean protein, substrate concentration 20%, heat treatment of enzyme yes, reaction time 6 h): 0.4%
- Decomposition efficiency: ratio of each glycoside/aglycon within its isoflavone family (concentrated soybean protein, substrate concentration 30%, heat treatment of enzyme no, reaction time 0 h): 0.4%
- Decomposition efficiency: ratio of each glycoside/aglycon within its isoflavone family (concentrated soybean protein, substrate concentration 30%, heat treatment of enzyme no, reaction time 1 h): 0.6%
- Decomposition efficiency: ratio of each glycoside/aglycon within its isoflavone family (concentrated soybean protein, substrate concentration 30%, heat treatment of enzyme no, reaction time 3 h): 0.5%
- Decomposition efficiency: ratio of each glycoside/aglycon within its isoflavone family (concentrated soybean protein, substrate concentration 30%, heat treatment of enzyme no, reaction time 6 h): 0.3%
- Decomposition efficiency: ratio of each glycoside/aglycon within its isoflavone family (concentrated soybean protein, substrate concentration 30%, heat treatment of enzyme yes, reaction time 6 h): 0.4%
- Decomposition efficiency: ratio of each glycoside/aglycon within its isoflavone family (defatted soybean, substrate concentration 2%, heat treatment of enzyme no, reaction time 0 h): not detected
- Decomposition efficiency: ratio of each glycoside/aglycon within its isoflavone family (defatted soybean, substrate concentration 2%, heat treatment of enzyme no, reaction time 1 h): not detected
- Decomposition efficiency: ratio of each glycoside/aglycon within its isoflavone family (defatted soybean, substrate concentration 2%, heat treatment of enzyme no, reaction time 3 h): not detected
- Decomposition efficiency: ratio of each glycoside/aglycon within its isoflavone family (defatted soybean, substrate concentration 2%, heat treatment of enzyme no, reaction time 6 h): not detected
- Decomposition efficiency: ratio of each glycoside/aglycon within its isoflavone family (defatted soybean, substrate concentration 2%, heat treatment of enzyme yes, reaction time 6 h): not detected
- Decomposition efficiency: ratio of each glycoside/aglycon within its isoflavone family (defatted soybean, substrate concentration 5%, heat treatment of enzyme no, reaction time 0 h): 58.4%
- Decomposition efficiency: ratio of each glycoside/aglycon within its isoflavone family (defatted soybean, substrate concentration 5%, heat treatment of enzyme no, reaction time 1 h): 41.6%
- Decomposition efficiency: ratio of each glycoside/aglycon within its isoflavone family (defatted soybean, substrate concentration 5%, heat treatment of enzyme no, reaction time 3 h): 31.8%
- Decomposition efficiency: ratio of each glycoside/aglycon within its isoflavone family (defatted soybean, substrate concentration 5%, heat treatment of enzyme no, reaction time 6 h): 19.5%
- Decomposition efficiency: ratio of each glycoside/aglycon within its isoflavone family (defatted soybean, substrate concentration 5%, heat treatment of enzyme yes, reaction time 6 h): 58.5%
- Decomposition efficiency: ratio of each glycoside/aglycon within its isoflavone family (defatted soybean, substrate concentration 10%, heat treatment of enzyme no, reaction time 0 h): 53.0%
- Decomposition efficiency: ratio of each glycoside/aglycon within its isoflavone family (defatted soybean, substrate concentration 10%, heat treatment of enzyme no, reaction time 1 h): 54.7%
- Decomposition efficiency: ratio of each glycoside/aglycon within its isoflavone family (defatted soybean, substrate concentration 10%, heat treatment of enzyme no, reaction time 3 h): 36.6%
- Decomposition efficiency: ratio of each glycoside/aglycon within its isoflavone family (defatted soybean, substrate concentration 10%, heat treatment of enzyme no, reaction time 6 h): 27.9%
- Decomposition efficiency: ratio of each glycoside/aglycon within its isoflavone family (defatted soybean, substrate concentration 10%, heat treatment of enzyme yes, reaction time 6 h): 57.6%
- Decomposition efficiency: ratio of each glycoside/aglycon within its isoflavone family (roasted soy flour, substrate concentration 2%, heat treatment of enzyme no, reaction time 0 h): not detected
- Decomposition efficiency: ratio of each glycoside/aglycon within its isoflavone family (roasted soy flour, substrate concentration 2%, heat treatment of enzyme no, reaction time 1 h): not detected
- Decomposition efficiency: ratio of each glycoside/aglycon within its isoflavone family (roasted soy flour, substrate concentration 2%, heat treatment of enzyme no, reaction time 3 h): not detected
- Decomposition efficiency: ratio of each glycoside/aglycon within its isoflavone family (roasted soy flour, substrate concentration 2%, heat treatment of enzyme no, reaction time 6 h): not detected
- Decomposition efficiency: ratio of each glycoside/aglycon within its isoflavone family (roasted soy flour, substrate concentration 2%, heat treatment of enzyme yes, reaction time 6 h): not detected
- Decomposition efficiency: ratio of each glycoside/aglycon within its isoflavone family (roasted soy flour, substrate concentration 5%, heat treatment of enzyme no, reaction time 0 h): not detected
- Decomposition efficiency: ratio of each glycoside/aglycon within its isoflavone family (roasted soy flour, substrate concentration 5%, heat treatment of enzyme no, reaction time 1 h): not detected
- Decomposition efficiency: ratio of each glycoside/aglycon within its isoflavone family (roasted soy flour, substrate concentration 5%, heat treatment of enzyme no, reaction time 3 h): not detected
- Decomposition efficiency: ratio of each glycoside/aglycon within its isoflavone family (roasted soy flour, substrate concentration 5%, heat treatment of enzyme no, reaction time 6 h): not detected
- Decomposition efficiency: ratio of each glycoside/aglycon within its isoflavone family (roasted soy flour, substrate concentration 5%, heat treatment of enzyme yes, reaction time 6 h): not detected
- Decomposition efficiency: ratio of each glycoside/aglycon within its isoflavone family (roasted soy flour, substrate concentration 10%, heat treatment of enzyme no, reaction time 0 h): not detected
- Decomposition efficiency: ratio of each glycoside/aglycon within its isoflavone family (roasted soy flour, substrate concentration 10%, heat treatment of enzyme no, reaction time 1 h): not detected
- Decomposition efficiency: ratio of each glycoside/aglycon within its isoflavone family (roasted soy flour, substrate concentration 10%, heat treatment of enzyme no, reaction time 3 h): not detected
